Measured values reported in US20080114007A1 (priority 2006, published 2008).
pIC50: −log10 of the molar value.

The molecules below were run against CSF-1R (Homo sapiens, UniProt P07333) (assay: Peptide (non-phosphorylated) assay, fluorescence polarization competition immunoassay). Conditions: 0.7 nM CSF-1R, 308 μM SYEGNSYTFIDPTQ peptide, 1 mM ATP, 80 min; mean of at least three determinations; read-out: c-fms Peptide IC50.
Type: biochemical
Outline: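 Read-out is fluorescence polarization: after EDTA quench, anti-phosphotyrosine antibody plus PTK green tracer compete with the phosphorylated peptide for 30 min. The CSF-1R reaction itself ran 80 min at room temperature after ATP addition. DMSO (4%) wells served as controls, positive controls pre-treated with EDTA.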

Chain of CSF-1R (P07333 20-972): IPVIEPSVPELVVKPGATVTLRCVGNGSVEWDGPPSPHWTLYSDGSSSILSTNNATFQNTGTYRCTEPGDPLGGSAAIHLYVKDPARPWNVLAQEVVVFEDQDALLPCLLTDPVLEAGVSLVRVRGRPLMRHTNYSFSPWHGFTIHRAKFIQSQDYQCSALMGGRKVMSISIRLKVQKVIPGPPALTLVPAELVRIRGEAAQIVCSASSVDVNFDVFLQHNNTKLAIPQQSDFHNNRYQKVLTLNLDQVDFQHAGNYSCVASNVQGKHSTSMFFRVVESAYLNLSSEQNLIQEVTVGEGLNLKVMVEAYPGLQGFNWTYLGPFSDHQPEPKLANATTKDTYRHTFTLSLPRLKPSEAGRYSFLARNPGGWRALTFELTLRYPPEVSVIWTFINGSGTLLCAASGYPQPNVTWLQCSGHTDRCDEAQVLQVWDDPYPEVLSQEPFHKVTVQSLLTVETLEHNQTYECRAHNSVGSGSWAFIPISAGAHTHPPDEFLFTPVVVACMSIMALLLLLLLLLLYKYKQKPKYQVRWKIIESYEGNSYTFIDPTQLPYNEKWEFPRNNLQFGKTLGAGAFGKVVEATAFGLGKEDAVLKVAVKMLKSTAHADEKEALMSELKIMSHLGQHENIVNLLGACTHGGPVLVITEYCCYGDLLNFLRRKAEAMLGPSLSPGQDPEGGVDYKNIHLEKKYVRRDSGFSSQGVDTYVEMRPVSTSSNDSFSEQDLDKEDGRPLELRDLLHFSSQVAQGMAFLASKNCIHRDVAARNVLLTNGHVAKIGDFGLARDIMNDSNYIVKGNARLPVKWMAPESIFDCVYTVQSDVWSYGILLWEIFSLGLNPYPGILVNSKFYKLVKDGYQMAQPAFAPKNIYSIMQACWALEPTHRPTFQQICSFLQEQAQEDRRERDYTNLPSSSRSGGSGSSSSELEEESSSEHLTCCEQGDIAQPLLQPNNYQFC

Row | pIC50 | SMILES
1 | 8.32 | CONC(=O)c1cn(C2CCCCC2)c2nc(Nc3ccc(C4CCN(C)CC4)cc3)ncc2c1=O [Cpd 140, 8-cyclohexyl-2-[4-(1-methyl-piperidin-4-yl)-phenylamino]-5-oxo-5,8-dihydro-pyrido[2,3-d]pyrimidine-6-carboxylic acid methoxy-amide]
2 | 6.74 | CN1CCN(CCc2ccc(Nc3ncc4c(=O)c(C(=O)N5CCCCC5)cn(-c5ccc6c(c5)CCC6)c4n3)cc2)CC1 [Cpd 64, 8-indan-5-yl-2-{4-[2-(4-methyl-piperazin-1-yl)-ethyl]-phenylamino}-6-(piperidine-1-carbonyl)-8H-pyrido[2,3-d]pyrimidin-5-one]
3 | 9.62 | CONC(=O)c1cn(-c2ccc3c(c2)CCC3)c2nc(Nc3ccc(CN4CCCC4=O)cc3)ncc2c1=O [Cpd 9, 8-indan-5-yl-5-oxo-2-[4-(2-oxo-pyrrolidin-1-ylmethyl)-phenylamino]-5,8-dihydro-pyrido[2,3-d]pyrimidine-6-carboxylic acid methoxy-amide]
4 | 8.52 | COCCc1ccc(Nc2ncc3c(=O)c(C(=O)NOC)cn(-c4ccc5c(c4)CCC5)c3n2)cc1 [Cpd 81, 8-indan-5-yl-2-[4-(2-methoxy-ethyl)-phenylamino]-5-oxo-5,8-dihydro-pyrido[2,3-d]pyrimidine-6-carboxylic acid methoxy-amide]
5 | 8.59 | CONC(=O)c1cn(C2CCCC2)c2nc(Nc3ccc(C4CCN(C(C)=O)CC4)cc3)ncc2c1=O [Cpd 46, 2-[4-(1-acetyl-piperidin-4-yl)-phenylamino]-8-cyclopentyl-5-oxo-5,8-dihydro-pyrido[2,3-d]pyrimidine-6-carboxylic acid methoxy-amide]
6 | 8.38 | CONC(=O)c1cn(-c2ccc3c(c2)CCC3)c2nc(Nc3cccc(C(=O)NCCN4CCOCC4)c3)ncc2c1=O [Cpd 198, 8-indan-5-yl-2-[3-(2-morpholin-4-yl-ethylcarbamoyl)-phenylamino]-5-oxo-5,8-dihydro-pyrido[2,3-d]pyrimidine-6-carboxylic acid methoxy-amide]
7 | 9.00 | CONC(=O)c1cn(-c2ccc3c(c2)CCC3)c2nc(Nc3cccc(CCN4CCS(=O)(=O)CC4)c3)ncc2c1=O [Cpd 205, 2-{3-[2-(1,1-dioxo-1λ^6-thiomorpholin-4-yl)-ethyl]-phenylamino}-8-indan-5-yl-5-oxo-5,8-dihydro-pyrido[2,3-d]pyrimidine-6-carboxylic acid methoxy-amide]
8 | 9.00 | CCONC(=O)c1cn(C2CCCCC2)c2nc(Nc3ccc(C4CCN(C(C)=O)CC4)cc3)ncc2c1=O [Cpd 29, 2-[4-(1-acetyl-piperidin-4-yl)-phenylamino]-8-cyclohexyl-5-oxo-5,8-dihydro-pyrido[2,3-d]pyrimidine-6-carboxylic acid ethoxy-amide]
9 | 9.52 | CCc1ccc(-n2cc(C(=O)NOC)c(=O)c3cnc(Nc4ccc5c(c4)CCN5C(C)=O)nc32)cc1 [Cpd 279, 2-(1-acetyl-2,3-dihydro-1H-indol-5-ylamino)-8-(4-ethyl-phenyl)-5-oxo-5,8-dihydro-pyrido[2,3-d]pyrimidine-6-carboxylic acid methoxy-amide]
10 | 8.85 | CONC(=O)c1cn(-c2ccc3c(c2)CCC3)c2nc(Nc3cccc(CCN4CCN(S(C)(=O)=O)CC4)c3)ncc2c1=O [Cpd 203, 8-indan-5-yl-2-{3-[2-(4-methanesulfonyl-piperazin-1-yl)-ethyl]-phenylamino}-5-oxo-5,8-dihydro-pyrido[2,3-d]pyrimidine-6-carboxylic acid methoxy-amide]
11 | 8.68 | CONC(=O)c1cn(-c2ccc3c(c2)CCC3)c2nc(Nc3cccc(-n4cncn4)c3)ncc2c1=O [Cpd 174, 8-indan-5-yl-5-oxo-2-(3-[1,2,4]triazol-1-yl-phenylamino)-5,8-dihydro-pyrido[2,3-d]pyrimidine-6-carboxylic acid methoxy-amide]
12 | 8.85 | CCc1ccc(-n2cc(C(=O)NOC)c(=O)c3cnc(Nc4ccc(CC(=O)NN(C)C)cc4)nc32)cc1 [Cpd 105, 2-[4-(N′,N′-dimethyl-hydrazinocarbonylmethyl)-phenylamino]-8-(4-ethyl-phenyl)-5-oxo-5,8-dihydro-pyrido[2,3-d]pyrimidine-6-carboxylic acid methoxy-amide]
13 | 9.30 | CCc1ccc(-n2cc(C(=O)NOC)c(=O)c3cnc(Nc4ccc(OC5CCN(CC)CC5)cc4)nc32)cc1 [Cpd 310, 8-(4-ethyl-phenyl)-2-[4-(1-ethyl-piperidin-4-yloxy)-phenylamino]-5-oxo-5,8-dihydro-pyrido[2,3-d]pyrimidine-6-carboxylic acid methoxy-amide]
14 | 8.72 | CCONC(=O)c1cn(C2CCCC2)c2nc(Nc3ccc(C4CCN(C(C)=O)CC4)cc3)ncc2c1=O [Cpd 47, 2-[4-(1-acetyl-piperidin-4-yl)-phenylamino]-8-cyclopentyl-5-oxo-5,8-dihydro-pyrido[2,3-d]pyrimidine-6-carboxylic acid ethoxy-amide]
15 | 8.77 | CCONC(=O)c1cn(-c2ccc3c(c2)CCC3)c2nc(Nc3ccc(C4CCN(C(C)=O)CC4)cc3)ncc2c1=O [Cpd 70, 2-[4-(1-acetyl-piperidin-4-yl)-phenylamino]-8-indan-5-yl-5-oxo-5,8-dihydro-pyrido[2,3-d]pyrimidine-6-carboxylic acid ethoxy-amide]
16 | 9.02 | COCCOc1cccc(Nc2ncc3c(=O)c(C(=O)NOC)cn(-c4ccc5c(c4)CCC5)c3n2)c1 [Cpd 261, 8-indan-5-yl-2-[3-(2-methoxy-ethoxy)-phenylamino]-5-oxo-5,8-dihydro-pyrido[2,3-d]pyrimidine-6-carboxylic acid methoxy-amide]
17 | 8.77 | CCc1ccc(-n2cc(C(=O)NOC)c(=O)c3cnc(Nc4cccc(N(C)C)c4)nc32)cc1 [Cpd 319, 2-(3-dimethylamino-phenylamino)-8-(4-ethyl-phenyl)-5-oxo-5,8-dihydro-pyrido[2,3-d]pyrimidine-6-carboxylic acid methoxy-amide]
18 | 8.85 | COCCNCCc1ccc(Nc2ncc3c(=O)c(C(=O)NOC)cn(-c4ccc5c(c4)CCC5)c3n2)cc1 [Cpd 98, 8-indan-5-yl-2-{4-[2-(2-methoxy-ethylamino)-ethyl]-phenylamino}-5-oxo-5,8-dihydro-pyrido[2,3-d]pyrimidine-6-carboxylic acid methoxy-amide]
19 | 8.96 | CCc1ccc(-n2cc(C(=O)NOC)c(=O)c3cnc(Nc4ccc(NCCCOC)cc4)nc32)cc1 [Cpd 213, 8-(4-ethyl-phenyl)-2-[4-(3-methoxy-propylamino)-phenylamino]-5-oxo-5,8-dihydro-pyrido[2,3-d]pyrimidine-6-carboxylic acid methoxy-amide]
20 | 8.22 | CONC(=O)c1cn(-c2ccc3c(c2)CCC3)c2nc(Nc3ccc(C4CCN(CC(F)(F)F)CC4)cc3)ncc2c1=O [Cpd 292, 8-indan-5-yl-5-oxo-2-{4-[1-(2,2,2-trifluoro-ethyl)-piperidin-4-yl]-phenylamino}-5,8-dihydro-pyrido[2,3-d]pyrimidine-6-carboxylic acid methoxy-amide]
21 | 8.68 | CCONC(=O)c1cn(C2CCCCC2)c2nc(Nc3ccc(N4CC(C)NC(C)C4)cc3)ncc2c1=O (centres unmarked) [Cpd 25, 8-cyclohexyl-2-[4-(3,5-dimethyl-piperazin-1-yl)-phenylamino]-5-oxo-5,8-dihydro-pyrido[2,3-d]pyrimidine-6-carboxylic acid ethoxy-amide]
22 | 9.28 | CONC(=O)c1cn(-c2ccc3c(c2)CCC3)c2nc(Nc3ccc(C4CCCCN4C)cc3)ncc2c1=O (centres unmarked) [Cpd 243, 8-indan-5-yl-2-[4-(1-methyl-piperidin-2-yl)-phenylamino]-5-oxo-5,8-dihydro-pyrido[2,3-d]pyrimidine-6-carboxylic acid methoxy-amide]
23 | 8.96 | CONC(=O)c1cn(-c2ccc3c(c2)CCC3)c2nc(Nc3cccc(S(=O)(=O)CCN(C)C)c3)ncc2c1=O [Cpd 230, 2-[3-(2-dimethylamino-ethanesulfonyl)-phenylamino]-8-indan-5-yl-5-oxo-5,8-dihydro-pyrido[2,3-d]pyrimidine-6-carboxylic acid methoxy-amide]
24 | 8.26 | CCc1ccc(-n2cc(C(=O)NOC)c(=O)c3cnc(Nc4ccc(-n5cccc5)cc4)nc32)cc1 [Cpd 317, 8-(4-ethyl-phenyl)-5-oxo-2-(4-pyrrol-1-yl-phenylamino)-5,8-dihydro-pyrido[2,3-d]pyrimidine-6-carboxylic acid methoxy-amide]
25 | 8.66 | CONC(=O)c1cn(C2CCCC2)c2nc(Nc3ccc(N4CCCC4)cc3)ncc2c1=O [Cpd 35, 8-cyclopentyl-5-oxo-2-(4-pyrrolidin-1-yl-phenylamino)-5,8-dihydro-pyrido[2,3-d]pyrimidine-6-carboxylic acid methoxy-amide]
26 | 9.24 | CCc1ccc(-n2cc(C(=O)NOC)c(=O)c3cnc(Nc4ccc(CCN5CC(F)C5)cc4)nc32)cc1 [Cpd 265, 8-(4-ethyl-phenyl)-2-{4-[2-(3-fluoro-azetidin-1-yl)-ethyl]-phenylamino}-5-oxo-5,8-dihydro-pyrido[2,3-d]pyrimidine-6-carboxylic acid methoxy-amide]
27 | 9.52 | CONC(=O)c1cn(-c2ccc3c(c2)CCC3)c2nc(Nc3ccc(OC4CCNCC4)cc3)ncc2c1=O [Cpd 311, 8-indan-5-yl-5-oxo-2-[4-(piperidin-4-yloxy)-phenylamino]-5,8-dihydro-pyrido[2,3-d]pyrimidine-6-carboxylic acid methoxy-amide]

Same assay, conditions: c-fms Peptide IC50, 0.7 nM CSF-1R, 308 μM SYEGNSYTFIDPTQ peptide, 1 mM ATP, 80 min; mean of at least three determinations

Row | pIC50 | SMILES
28 | 8.89 | CONC(=O)c1cn(-c2ccc3c(c2)CCC3)c2nc(Nc3ccc(CCN4CCOCC4)cc3)ncc2c1=O [Cpd 80, 8-indan-5-yl-2-[4-(2-morpholin-4-yl-ethyl)-phenylamino]-5-oxo-5,8-dihydro-pyrido[2,3-d]pyrimidine-6-carboxylic acid methoxy-amide]
29 | 8.62 | CONC(=O)c1cn(-c2ccc3c(c2)CCC3)c2nc(Nc3ccc(CCS(=O)(=O)NC(C)=O)cc3)ncc2c1=O [Cpd 90, 2-[4-(2-acetylsulfamoyl-ethyl)-phenylamino]-8-indan-5-yl-5-oxo-5,8-dihydro-pyrido[2,3-d]pyrimidine-6-carboxylic acid methoxy-amide]
